Data published in patent US20260209223A1, “FGFR3 INHIBITOR COMPOUNDS” (TYRA BIOSCIENCES, INC., priority 2022, published 2026).

How the values were obtained:
Test in all cases: Kinase binding assay (Kd), kinase-tagged T7 phage, affinity beads, qPCR
Conditions in all cases: in vitro binding assay, 11-point 3-fold dilution series
[1] = target: T1, FGFR1 (Homo sapiens, UniProt P11362)
T1 construct: made in house; host or cells: E. coli (BL21-derived) infected with T7 phage
Experimental: (§1) Kinase-tagged T7 phage strains were prepared in an E. coli host derived from the BL21 strain. E. coli were grown to log-phase and infected with T7 phage and incubated with shaking at 32° C. until lysis. The lysates were centrifuged and filtered to remove cell debris. Streptavidin-coated magnetic beads were treated with biotinylated small molecule ligands for 30 minutes at room temperature to generate affinity resins for kinase assays. The liganded beads were blocked with excess biotin and washed with blocking buffer SeaBlock (Pierce), 1% BSA, 0.05% Tween 20, 1 mM DTT to remove unbound ligand and to reduce non-specific binding. Binding reactions were assembled by combining kinases, liganded affinity beads, and test compounds in 1× binding buffer (20% SeaBlock, 0.17×PBS, 0.05% Tween 20, 6 mM DTT).
(§2) Test compounds were prepared as 111× stocks in 100% DMSO. Kds were determined using an 11-point 3-fold compound dilution series with three DMSO control points. All compounds for Kd measurements are distributed by acoustic transfer (non-contact dispensing) in 100% DMSO. The compounds were then diluted directly into the assays such that the final concentration of DMSO was 0.9%. All reactions performed in polypropylene 384-well plate. Each was a final volume of 0.02 ml. The assay plates were incubated at room temperature with shaking for 1 hour and the affinity beads were washed with wash buffer (1×PBS, 0.05% Tween 20). The beads were then re-suspended in elution buffer (1×PBS, 0.05% Tween 20, 0.5 μM non-biotinylated affinity ligand) and incubated at room temperature with shaking for 30 minutes. The kinase concentration in the eluates was measured by qPCR.
(§3) Binding constants were calculated with a standard dose-response curve using the Hill equation: […]
(§4) The Hill Slope was set to −1. Curves were fitted using a non-linear least square fit with the Levenberg-Marquardt algorithm.

[2] = target: T2, FGFR2 (Homo sapiens, UniProt P21802)
T2 construct: made in house; host or cells: E. coli (BL21-derived) infected with T7 phage
Experimental: as §1, §2, §3, §4

[3] = target: T3, FGFR3 (Homo sapiens, UniProt P22607)
T3 construct: made in house; host or cells: E. coli (BL21-derived) infected with T7 phage
Experimental: as §1, §2, §3, §4

[4] = target: T4, FGFR3 (V555M) (Homo sapiens, UniProt P22607, V555M)
T4 construct: made in house; host or cells: E. coli (BL21-derived) infected with T7 phage
Experimental: as §1, §2, §3, §4

[5] = target: T5, FGFR4 (Homo sapiens, UniProt P22455)
T5 construct: made in house; host or cells: E. coli (BL21-derived) infected with T7 phage
Experimental: as §1, §2, §3, §4

T2 sequence (P21802 22-821): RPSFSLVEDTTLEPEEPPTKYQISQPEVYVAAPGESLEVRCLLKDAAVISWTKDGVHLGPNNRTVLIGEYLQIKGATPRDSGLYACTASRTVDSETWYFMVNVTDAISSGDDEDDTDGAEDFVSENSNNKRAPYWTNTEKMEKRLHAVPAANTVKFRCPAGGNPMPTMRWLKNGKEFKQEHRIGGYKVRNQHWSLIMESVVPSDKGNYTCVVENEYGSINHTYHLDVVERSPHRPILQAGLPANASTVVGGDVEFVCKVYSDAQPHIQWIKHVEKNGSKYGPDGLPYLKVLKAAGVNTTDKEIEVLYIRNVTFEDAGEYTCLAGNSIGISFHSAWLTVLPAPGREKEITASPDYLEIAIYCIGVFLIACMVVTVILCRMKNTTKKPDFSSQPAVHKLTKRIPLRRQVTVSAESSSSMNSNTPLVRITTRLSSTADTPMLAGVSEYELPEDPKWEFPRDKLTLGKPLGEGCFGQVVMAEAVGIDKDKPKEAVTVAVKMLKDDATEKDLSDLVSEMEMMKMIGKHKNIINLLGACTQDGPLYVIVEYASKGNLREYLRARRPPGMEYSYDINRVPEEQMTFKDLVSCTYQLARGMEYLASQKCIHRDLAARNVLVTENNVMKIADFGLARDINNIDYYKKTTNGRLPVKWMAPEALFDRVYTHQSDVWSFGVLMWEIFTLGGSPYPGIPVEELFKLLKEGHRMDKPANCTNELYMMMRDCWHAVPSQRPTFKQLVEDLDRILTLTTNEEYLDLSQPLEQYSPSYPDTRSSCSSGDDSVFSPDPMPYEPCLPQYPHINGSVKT
T3 sequence (P22607 23-806): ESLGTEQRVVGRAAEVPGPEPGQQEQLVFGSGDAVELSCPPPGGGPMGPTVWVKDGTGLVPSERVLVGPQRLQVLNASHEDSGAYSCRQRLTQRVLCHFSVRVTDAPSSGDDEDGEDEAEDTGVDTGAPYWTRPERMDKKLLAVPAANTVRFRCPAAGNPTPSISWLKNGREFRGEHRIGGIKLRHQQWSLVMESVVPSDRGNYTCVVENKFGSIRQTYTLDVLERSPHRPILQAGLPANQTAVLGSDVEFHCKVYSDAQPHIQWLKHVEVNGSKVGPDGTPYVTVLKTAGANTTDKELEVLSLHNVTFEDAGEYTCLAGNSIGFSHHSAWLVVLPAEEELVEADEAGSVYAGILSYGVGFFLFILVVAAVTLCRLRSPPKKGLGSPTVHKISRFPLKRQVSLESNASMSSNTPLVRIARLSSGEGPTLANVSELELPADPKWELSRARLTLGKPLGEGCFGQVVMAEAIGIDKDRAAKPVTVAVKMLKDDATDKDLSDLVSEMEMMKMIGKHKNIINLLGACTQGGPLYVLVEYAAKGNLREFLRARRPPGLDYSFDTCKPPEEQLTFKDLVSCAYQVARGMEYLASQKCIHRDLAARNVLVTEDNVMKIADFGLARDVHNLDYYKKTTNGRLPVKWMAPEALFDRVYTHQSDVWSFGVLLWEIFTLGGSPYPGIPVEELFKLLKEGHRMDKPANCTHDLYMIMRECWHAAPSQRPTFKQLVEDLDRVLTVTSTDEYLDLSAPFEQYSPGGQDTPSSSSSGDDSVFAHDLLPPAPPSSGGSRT
T4 sequence (P22607 23-806 V555M): as the sequence (P22607 23-806) above, with V533M counted along it
T5 sequence (P22455 22-802): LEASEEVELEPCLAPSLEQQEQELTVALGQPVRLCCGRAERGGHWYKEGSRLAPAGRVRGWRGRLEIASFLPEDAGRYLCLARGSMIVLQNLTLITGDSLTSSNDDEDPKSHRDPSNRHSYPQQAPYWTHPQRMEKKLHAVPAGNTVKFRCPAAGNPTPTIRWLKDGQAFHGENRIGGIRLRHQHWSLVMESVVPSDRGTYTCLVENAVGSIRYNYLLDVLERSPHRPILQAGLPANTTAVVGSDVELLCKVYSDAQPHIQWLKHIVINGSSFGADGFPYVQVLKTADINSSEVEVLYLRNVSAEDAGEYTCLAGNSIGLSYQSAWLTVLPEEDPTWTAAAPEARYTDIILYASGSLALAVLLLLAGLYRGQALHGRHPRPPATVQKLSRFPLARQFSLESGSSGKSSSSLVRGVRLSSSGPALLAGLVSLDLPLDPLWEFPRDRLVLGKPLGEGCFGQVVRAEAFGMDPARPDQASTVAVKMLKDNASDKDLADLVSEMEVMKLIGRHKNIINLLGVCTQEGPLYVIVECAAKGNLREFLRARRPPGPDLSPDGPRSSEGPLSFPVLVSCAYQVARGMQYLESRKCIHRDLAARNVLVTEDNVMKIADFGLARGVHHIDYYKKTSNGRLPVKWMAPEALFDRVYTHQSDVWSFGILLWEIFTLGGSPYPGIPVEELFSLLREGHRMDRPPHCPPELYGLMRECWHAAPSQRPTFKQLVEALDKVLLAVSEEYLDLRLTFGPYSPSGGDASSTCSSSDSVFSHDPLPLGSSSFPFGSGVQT
T1 sequence (P11362 22-822): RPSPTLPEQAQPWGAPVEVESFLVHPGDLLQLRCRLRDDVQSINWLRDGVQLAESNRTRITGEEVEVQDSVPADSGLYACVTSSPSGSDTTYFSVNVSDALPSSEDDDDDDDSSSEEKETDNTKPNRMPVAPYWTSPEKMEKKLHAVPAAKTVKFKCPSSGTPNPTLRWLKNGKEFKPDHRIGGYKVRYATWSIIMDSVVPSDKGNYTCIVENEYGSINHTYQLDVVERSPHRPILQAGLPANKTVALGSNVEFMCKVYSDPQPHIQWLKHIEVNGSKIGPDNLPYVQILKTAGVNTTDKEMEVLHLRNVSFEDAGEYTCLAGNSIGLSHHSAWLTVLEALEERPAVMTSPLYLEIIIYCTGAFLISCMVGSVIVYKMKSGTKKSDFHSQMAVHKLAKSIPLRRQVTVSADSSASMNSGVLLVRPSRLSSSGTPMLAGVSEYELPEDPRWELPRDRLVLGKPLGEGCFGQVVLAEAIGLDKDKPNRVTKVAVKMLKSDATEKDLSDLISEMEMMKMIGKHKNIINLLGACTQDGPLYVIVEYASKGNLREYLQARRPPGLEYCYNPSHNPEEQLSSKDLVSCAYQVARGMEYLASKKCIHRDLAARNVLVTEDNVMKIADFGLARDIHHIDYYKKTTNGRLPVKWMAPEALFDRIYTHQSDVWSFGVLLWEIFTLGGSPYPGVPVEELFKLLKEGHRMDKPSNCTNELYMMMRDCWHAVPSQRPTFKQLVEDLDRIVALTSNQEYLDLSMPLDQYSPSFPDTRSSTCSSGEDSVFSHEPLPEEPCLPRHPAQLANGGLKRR

| Compound | Kd [1] | Kd [2] | Kd [3] | Kd [4] | Kd [5] |
| --- | --- | --- | --- | --- | --- |
| C=CC(=O)N1CC(F)(C(=O)N2CCC(n3nnc(-c4cc(O[C@@H](CO)c5ccccn5)c5c(C#N)cnn5c4)c3C)CC2)C1 (single isomer, unassigned) [Example 19] | ≥ 1000 nM | 250 to 1000 nM | 100 to 250 nM | 250 to 1000 nM | ≥ 1000 nM |
| CCC(=O)N1CCC2(CC1)CC(n1cc(-c3cc(O[C@@H](CO)c4ccc(F)cn4)c4c(C#N)cnn4c3)cn1)C2 [Example 26, (R)-4-(1-(5-fluoropyridin-2-yl)-2-hydroxyethoxy)-6-(1-(7-propionyl-7-azaspiro[3.5]nonan-2-yl)-1H-pyrazol-4-yl)pyrazolo[1,5-a]pyridine-3-carbonitrile] | 100 to 250 nM | 100 to 250 nM | 100 to 250 nM | 250 to 1000 nM | 250 to 1000 nM |
| CCC(=O)N1CC(C(=O)N2CCC(n3nnc(-c4cc(OC(CO)c5ccccn5)c5c(C#N)cnn5c4)c3C)CC2)C1 (stereo not drawn) [Example 16, 4-(2-hydroxy-1-(pyridin-2-yl)ethoxy)-6-(5-methyl-1-(1-(1-propionylazetidine-3-carbonyl)piperidin-4-yl)-1H-1,2,3-triazol-4-yl)pyrazolo[1,5-a]pyridine-3-carbonitrile] | 100 to 250 nM | 0.1 to 100 nM | 0.1 to 100 nM | 0.1 to 100 nM | 0.1 to 100 nM |
| C=CC(=O)N1CC(C(=O)N2CCC(n3nnc(-c4cc(O[C@@H](CO)c5ccccn5)c5c(C#N)cnn5c4)c3C)CC2)C1 [Example 17, (R)-6-(1-(1-(1-acryloylazetidine-3-carbonyl)piperidin-4-yl)-5-methyl-1H-1,2,3-triazol-4-yl)-4-(2-hydroxy-1-(pyridin-2-yl)ethoxy)pyrazolo[1,5-a]pyridine-3-carbonitrile] | ≥ 1000 nM | 250 to 1000 nM | 100 to 250 nM | 250 to 1000 nM | ≥ 1000 nM |
| C#CC(=O)N1CC(OC)(C(=O)N2CCC(n3nnc(-c4cc(OC(CO)c5ccccn5)c5c(C#N)cnn5c4)c3C)CC2)C1 (stereo not drawn) [Example 24, 4-(2-hydroxy-1-(pyridin-2-yl)ethoxy)-6-(1-(1-(3-methoxy-1-propioloylazetidine-3-carbonyl)piperidin-4-yl)-5-methyl-1H-1,2,3-triazol-4-yl)pyrazolo[1,5-a]pyridine-3-carbonitrile] | 0.1 to 100 nM | 0.1 to 100 nM | 0.1 to 100 nM | 0.1 to 100 nM | 0.1 to 100 nM |
| C=CC(=O)N1CCC2(CC1)CC(n1cc(-c3cc(O[C@@H](CO)c4ccc(F)cn4)c4c(C#N)cnn4c3)cn1)C2 [Example 25, (R)-6-(1-(7-acryloyl-7-azaspiro[3.5]nonan-2-yl)-1H-pyrazol-4-yl)-4-(1-(5-fluoropyridin-2-yl)-2-hydroxyethoxy)pyrazolo[1,5-a]pyridine-3-carbonitrile] | 100 to 250 nM | 100 to 250 nM | 100 to 250 nM | 250 to 1000 nM | 250 to 1000 nM |
